Laboratory results: patent US11181534B2, “Routine laboratory and point-of-care (POC) testing for hemostasis” (Bloodworks, priority 2014, dated 2021)

How the values were obtained:
Factor VIII (FVIII) [1] = assay: FVIII Antigen by ELISA (FVIII-AG ELISA kit) in patient plasma; type: in vivo, human
Experimental: (§1) Blood samples were collected by venipuncture in 3.2% sodium citrate anticoagulant. Platelet poor plasma was separated by centrifugation per clinical protocols, snap frozen, and stored at −80 C until tested. FVIII Antigen was measured by ELISA (FVIII-AG ELISA kit, Affinity Biologicals) per the manufacturer's instructions. FVIII Activity was measured by manual one-stage assay per the clinical protocol of the Bloodworks Northwest Hemostasis Reference Laboratory. The Koate DVI (Kedrion) coefficient (in vivo) was ascertained by measuring FVIII Antigen and FVIII Activity samples from patients undergoing clinically-indicated Koate DVI kinetic studies and calculating the Activity:Antigen ratio. Pooled normal plasma (Precision BioLogic), normal reference plasmas (Precision BioLogic, Siemens), abnormal reference plasma (Siemens), samples from healthy blood donors, and FVIII-deficient plasma (Affinity Biologicals, Siemens) were used in assays as standards and controls.

Factor VIII (FVIII) [2] = assay: FVIII Activity by manual one-stage assay in patient plasma; type: in vivo, human; settings: FVIII Case #3, 45 min after Stimate; baseline 18.9%
Experimental: as §1

Factor IX (FIX) [3] = assay: FIX coefficient, Activity:Antigen ratio (dilution into FIX-deficient plasma / normal plasma standards); type: biochemical, human
Experimental: (§2) Blood samples were collected by venipuncture in 3.2% sodium citrate anticoagulant. Platelet poor plasma was separated by centrifugation per clinical protocols, snap frozen, and stored at −80 C until tested. FIX Antigen was measured by FIX-EIA paired antibody ELISA (Affinity Biologicals). FIX-deficient plasma (Affinity Biologicals) was used as a negative control and diluent. FIX Activity was performed via manual one-stage assay per the clinical laboratory protocols of the Bloodworks Northwest Hemostasis Reference Laboratory. FIX-deficient plasma (Siemens) was used as a diluent and negative control. The Benefix (Wyeth Pharmaceuticals) coefficient was ascertained by serial dilution of Benefix into FIX-deficient plasma (Affinity Biologicals), performance of both the FIX Antigen and Activity assays, and calculating the Activity:Antigen ratio.
The patient then received a dose of Alprolix followed by a blood draw 24 hours later. The Alprolix drug coefficient was not able to be experimentally determined due to limited drug availability. In lieu of this, we used normal plasma standards and experimentally determined the coefficient of normal human FIX to be 1.1. We then assumed the drug coefficient for Alprolix to be similar to naturally occurring FIX, and determined the patient's FIX level by: FIX Activity=(Base FIX Activity)+[(Measured FIX Antigen−Base FIX Antigen)×(Patient's FIX Coefficient)].

Factor IX (FIX) [4] = assay: FIX Antigen by FIX-EIA paired antibody ELISA in patient plasma; type: in vivo, human; settings: FIX Case #1, patient with severe Hemophilia B, at presentation, 6 days after Benefix
Experimental: as §2

Factor IX (FIX) [5] = assay: FIX Activity by manual one-stage assay in patient plasma; type: in vivo, human; settings: FIX Case #1, at presentation, 6 days after Benefix
Experimental: as §2

Factor XI (FXI) = assay: Factor XI Coefficient, serial dilution of normal reference plasma into FXI-deficient plasma; type: biochemical, human; settings: plasma pooled from healthy subjects
Experimental: Commercially-available normal and abnormal (FVII- and FXI-deficient) plasmas (Siemens) were obtained to be tested as experimental samples. Factor VII and Factor XI Coefficients were determined by serial dilution of normal reference plasma (Precision BioLogic) into FVII-deficient and FXI-deficient plasmas (Affinity Biologicals).
We tested two plasmas, one with normal levels of FXI, and one deficient in FXI (approximately 1/3 FXI activity). We experimentally determined using plasma pooled from healthy subjects that the coefficient of natural FXI is 0.82. The FXI Activity was then determined by: FXI Activity=[(Measured FXI Antigen)×(FXI Coefficient)].

Question: For `NC(=O)CC[C@@H]1NC(=O)[C@H](Cc2ccccc2)NC(=O)[C@H](Cc2ccc(O)cc2)NC(=O)CCSSC[C@@H](C(=O)N2CCC[C@H]2C(=O)N[C@H](CCCN=C(N)N)C(=O)NCC(N)=O)NC(=O)[C@H](CC(N)=O)NC1=O` [Stimate], which “FVIII Activity (Calculated)” value (Factor VIII (FVIII) [1]; FVIII Case #3, 45 min after Stimate, calculated with patient's FVIII coefficient 1.97, baseline 18.9%) is on record?
Answer: 48.92%

Question: And the “Measured FVIII Antigen (FVIII:Ag) (after Stimate)” value (Factor VIII (FVIII) [1]; FVIII Case #3, patient with mild Hemophilia A, 45 min after Stimate, baseline 9.59 IU/dL)?
Answer: 24.83 IU/dL

Question: What about the “FVIII Activity (Measured)” value (Factor VIII (FVIII) [2]) of the same molecule?
Answer: 50.76%

Question: “Benefix: a different FIX replacement therapy (Wyeth Pharmaceuticals / Pfizer)” was tested. Which “drug coefficient (FIX Activity:Antigen ratio)” value (Factor IX (FIX) [3]; serial dilution of Benefix into FIX-deficient plasma) did it give?
Answer: 2.1

Question: What about the “Measured FIX Antigen (FIX:Ag)” value (Factor IX (FIX) [4]) of the same molecule?
Answer: 8.0 IU/dL

Question: And the “FIX Activity (Measured)” value (Factor IX (FIX) [5])?
Answer: 4%

Question: For “natural FXI: FXI of plasma pooled from healthy subjects”, which “coefficient of natural FXI” value (Factor XI (FXI)) is on record?
Answer: 0.82

Question: With “normal human FIX: naturally occurring FIX in normal plasma standards” as the molecule, how does the “coefficient of normal human FIX” value (Factor IX (FIX) [3]; normal plasma standards) read?
Answer: 1.1
